US20250304563A1, “ACTIVATORS OF EFFECTOR T CELLS” (Orum Therapeutics, Inc., priority 2022, published 2025)
pIC50: −log10 of the molar value.

Key:
Human primary T cells [1] = assay: T cell activation: secreted IFN-y; type: cell-based; settings: 48 hours, fold over background normalized to Compound 141A; for IFN-y 1 nM: 1 nM compound; for IFN-y 10 nM: 10 nM compound; for IFN-y 100 nM: 100 nM compound
Procedure: (§1) Human primary T cells were isolated from commercially available frozen peripheral blood mononuclear cells (HemaCare Corporation) or from fresh LeukoPaks (Research Blood Components). T cells were isolated through depletion of non-T cells using negative selection kit according to the manufacturer's protocol (Miltenyi Biotec, Human Pan T Cell Isolation Kit, 130-096-535). Isolated cells were cultured overnight at 37° C. with 5% CO2 and plated at 1×10^5 cells per well in XVivo-15 serum-free media (Lonza, 04-418Q) into 96 well plates coated with anti-CD3 (OKT3) antibody (ThermoFisher, 16-0037-85). To coat the plates for T cell capture, anti-CD3 antibody was diluted in PBS at 10 μg/mL and 100 μl added to each well. Plates were incubated at 4° C. overnight or at 37° C. for 2 hours and washed once with PBS before use. Serial dilutions of each compound were added in duplicates to the T cells to assess their effect on T cell activation. T cells treated with 5 μg/mL of CD28 antibody (ThermoFisher, 16-0289-85) or T cells stimulated by CD3 only were used as a control. Plates were incubated with the Cbl-b inhibitors for 48 hours at 37° C. with 5% CO2, and supernatants were subsequently analyzed for levels of the activation induced secreted cytokines IL-2 or IFN-y (BD Biosciences CBA Flex Beads, 558269, 558270). T cells were additionally stained with anti-CD69 antibody (Invitrogen, 12-0699-42 which labels a T cell activation associated membrane protein to and surface expression was measured by flow cytometry (ThermoFisher Attune NxT).
(§2) To control for natural inter-donor variability in T cell responses intrinsic to using primary human donor derived cells, secreted IL-2 and IFN-y measurements for each test compound were reported as the fold increase of the compound treated levels over background (antiCD3/CD28 treatment only) normalized to the values obtained for Compound 141A. Results for compound treatment-induced changes in CD69 levels are similarly reported as the fold increase due to compound treatment over anti-CD3 stimulated background only, normalized to values obtained for Compound 141A.
Normalized T cell IFN-y responses were sorted into ranges as follows: fold over background between 1.10 and 2.00: range “A”, values between 0.31 and 1.00: range “B;” values between 0.10 and 0.30: range “C”, and values between 0.01 and 0.09: range “D.”

Human primary T cells [2] = assay: T cell activation: secreted IL-2; type: cell-based; settings: 48 hours, fold over background normalized to Compound 141A; for IL-2 1 nM: 1 nM compound; for IL-2 10 nM: 10 nM compound; for IL-2 100 nM: 100 nM compound
Procedure: as §1, §2
Normalized T cell IL-2 responses were sorted into ranges as follows: fold over background values between 1.41 and 1.8: range “X”, between 0.80 and 1.40: range “A”, values between 0.31 and 0.79: range “B” values between 0.10 and 0.30: range “C”, values between 0.01 and 0.09: range “D.”

Human primary T cells [3] = assay: T cell activation: CD69 surface expression by flow cytometry; type: cell-based; settings: fold over anti-CD3 stimulated background normalized to Compound 141A; for CD69 10 nM: 10 nM compound; for CD69 100 nM: 100 nM compound
Procedure: as §1, §2
Similarly, bins for normalized CD69 levels were sorted into ranges as follows: fold over background values between 1.11 and 1.6: range “X”, values between 0.81 and 1.10: range “A”; values between 0.61 and 0.80: range “B;” values between 0.30 and 0.60: range “C”.

[4] = target: Cbl-b (36-427 aa truncated form, N-terminus Avi-tag) (Homo sapiens (Human), UniProt Q13191); assay: Cbl-b binding: TR-FRET displacement of BODIPY-FL probe
Summary of the method: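 Avi-tagged Cbl-b 36-427 preincubated 1 h at RT with streptavidin-terbium in HEPES pH 7.5/NaCl/Triton/BSA/TCEP buffer, then 1 uM BODIPY-FL inhibitor probe plus compound added for 1 h. Probe displacement read by TR-FRET; IC50 fitted.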

Cbl-b (36-427 aa truncated form, N-terminus Avi-tag), sequence (Q13191 36-427): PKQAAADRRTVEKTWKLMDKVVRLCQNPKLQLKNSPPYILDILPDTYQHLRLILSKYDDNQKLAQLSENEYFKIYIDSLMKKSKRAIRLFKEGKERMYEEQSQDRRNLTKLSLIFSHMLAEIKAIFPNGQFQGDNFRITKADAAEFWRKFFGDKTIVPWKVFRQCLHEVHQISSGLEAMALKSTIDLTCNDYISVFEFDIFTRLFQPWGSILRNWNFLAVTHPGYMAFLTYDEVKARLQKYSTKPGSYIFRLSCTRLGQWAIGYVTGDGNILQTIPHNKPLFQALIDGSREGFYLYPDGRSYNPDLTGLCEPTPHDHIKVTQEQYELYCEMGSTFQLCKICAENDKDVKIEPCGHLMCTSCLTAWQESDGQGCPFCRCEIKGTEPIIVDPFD

C[C@H]1CCCN(Cc2cc3c(c(C(F)(F)F)c2)CN(c2cc(C4(Cc5nncn5C)COC4)cc(SCCO)n2)C3=O)C1 [Compound 102, 2-{6-[(2-hydroxyethyl)sulfanyl]-4-{3-[(4-methyl-1,2,4-triazol-3-yl)methyl]oxetan-3-yl}pyridin-2-yl}-6-{[(3S)-3-methylpiperidin-1-yl]methyl}-4-(trifluoromethyl)-3H-isoindol-1-one]
IFN-y 1 nM (Human primary T cells [1]): C (values between 0.10 and 0.30: range “C”) | IFN-y 10 nM (Human primary T cells [1]): C (values between 0.10 and 0.30: range “C”) | IFN-y 100 nM (Human primary T cells [1]): B (values between 0.31 and 1.00: range “B;”) | IL-2 1 nM (Human primary T cells [2]): C (values between 0.10 and 0.30: range “C”) | IL-2 10 nM (Human primary T cells [2]): C (values between 0.10 and 0.30: range “C”) | IL-2 100 nM (Human primary T cells [2]): B (values between 0.31 and 0.79: range “B”) | CD69 10 nM (Human primary T cells [3]): C (values between 0.30 and 0.60: range “C”) | CD69 100 nM (Human primary T cells [3]): B (values between 0.61 and 0.80: range “B;”) | pIC50 [4]: 7.70 to 8.30

CSCCNc1cc(C2(Cc3nncn3C)COC2)cc(N2Cc3c(cc(CN4CCC[C@H](C)C4)cc3C(F)(F)F)C2=O)n1 [Compound 103, 2-(4-{3-[(4-methyl-1,2,4-triazol-3-yl)methyl]oxetan-3-yl}-6-{[2-(methylsulfanyl)ethyl]amino}pyridin-2-yl)-6-{[(3S)-3-methylpiperidin-1-yl]methyl}-4-(trifluoromethyl)-3H-isoindol-1-one]
IFN-y 1 nM (Human primary T cells [1]): C (values between 0.10 and 0.30: range “C”) | IFN-y 10 nM (Human primary T cells [1]): C (values between 0.10 and 0.30: range “C”) | IFN-y 100 nM (Human primary T cells [1]): B (values between 0.31 and 1.00: range “B;”) | IL-2 1 nM (Human primary T cells [2]): C (values between 0.10 and 0.30: range “C”) | IL-2 10 nM (Human primary T cells [2]): C (values between 0.10 and 0.30: range “C”) | IL-2 100 nM (Human primary T cells [2]): B (values between 0.31 and 0.79: range “B”) | CD69 10 nM (Human primary T cells [3]): C (values between 0.30 and 0.60: range “C”) | CD69 100 nM (Human primary T cells [3]): B (values between 0.61 and 0.80: range “B;”) | pIC50 [4]: 7.70 to 8.30

CCNc1cc(C2(Cc3nncn3C)COC2)cc(N2Cc3c(cc(CN4CCC(CSC)CC4)cc3C(F)(F)F)C2=O)n1 [Compound 106, 2-[6-(ethylamino)-4-{3-[(4-methyl-1,2,4-triazol-3-yl)methyl]oxetan-3-yl}pyridin-2-yl]-6-({4-[(methylsulfanyl)methyl]piperidin-1-yl}methyl)-4-(trifluoromethyl)-3H-isoindol-1-one]
IFN-y 1 nM (Human primary T cells [1]): C (values between 0.10 and 0.30: range “C”) | IFN-y 10 nM (Human primary T cells [1]): C (values between 0.10 and 0.30: range “C”) | IFN-y 100 nM (Human primary T cells [1]): B (values between 0.31 and 1.00: range “B;”) | IL-2 1 nM (Human primary T cells [2]): C (values between 0.10 and 0.30: range “C”) | IL-2 10 nM (Human primary T cells [2]): C (values between 0.10 and 0.30: range “C”) | IL-2 100 nM (Human primary T cells [2]): B (values between 0.31 and 0.79: range “B”) | CD69 10 nM (Human primary T cells [3]): C (values between 0.30 and 0.60: range “C”) | CD69 100 nM (Human primary T cells [3]): B (values between 0.61 and 0.80: range “B;”) | pIC50 [4]: 6.00 to 7.00

CCSc1cc(C2(Cc3nncn3C)COC2)cc(N2Cc3c(cc(CN4CCC[C@H](C)C4)cc3C(F)(F)F)C2=O)n1 [Compound 107, 2-[6-(ethylsulfanyl)-4-{3-[(4-methyl-1,2,4-triazol-3-yl)methyl]oxetan-3-yl}pyridin-2-yl]-6-{[(3S)-3-methylpiperidin-1-yl]methyl}-4-(trifluoromethyl)-3H-isoindol-1-one]
IFN-y 1 nM (Human primary T cells [1]): B (values between 0.31 and 1.00: range “B;”) | IFN-y 10 nM (Human primary T cells [1]): B (values between 0.31 and 1.00: range “B;”) | IFN-y 100 nM (Human primary T cells [1]): B (values between 0.31 and 1.00: range “B;”) | IL-2 1 nM (Human primary T cells [2]): B (values between 0.31 and 0.79: range “B”) | IL-2 10 nM (Human primary T cells [2]): B (values between 0.31 and 0.79: range “B”) | IL-2 100 nM (Human primary T cells [2]): A (between 0.80 and 1.40: range “A”) | CD69 10 nM (Human primary T cells [3]): A (values between 0.81 and 1.10: range “A”) | CD69 100 nM (Human primary T cells [3]): A (values between 0.81 and 1.10: range “A”) | pIC50 [4]: 7.70 to 8.30

C[C@H]1CCCN(Cc2cc3c(c(C(F)(F)F)c2)CN(c2cc(C4(Cc5nncn5C)COC4)cc(NCCC#N)n2)C3=O)C1.O=CO [Compound 110, 3-[(4-{3-[(4-methyl-1,2,4-triazol-3-yl)methyl]oxetan-3-yl}-6-(6-{[(3S)-3-methylpiperidin-1-yl]methyl}-1-oxo-4-(trifluoromethyl)-3H-isoindol-2-yl)pyridin-2-yl)amino]propanenitrile; formic acid]
IFN-y 1 nM (Human primary T cells [1]): B (values between 0.31 and 1.00: range “B;”) | IFN-y 10 nM (Human primary T cells [1]): B (values between 0.31 and 1.00: range “B;”) | IFN-y 100 nM (Human primary T cells [1]): B (values between 0.31 and 1.00: range “B;”) | IL-2 1 nM (Human primary T cells [2]): C (values between 0.10 and 0.30: range “C”) | IL-2 10 nM (Human primary T cells [2]): B (values between 0.31 and 0.79: range “B”) | IL-2 100 nM (Human primary T cells [2]): B (values between 0.31 and 0.79: range “B”) | CD69 10 nM (Human primary T cells [3]): B (values between 0.61 and 0.80: range “B;”) | CD69 100 nM (Human primary T cells [3]): A (values between 0.81 and 1.10: range “A”) | pIC50 [4]: 8.30 to 9.00

CCNc1cc(C2(Cc3nncn3C)COC2)cc(N2Cc3c(cc(CN4CCC[C@H](CSC)C4)cc3C(F)(F)F)C2=O)n1 [Compound 111, 2-[6-(ethylamino)-4-{3-[(4-methyl-1,2,4-triazol-3-yl)methyl]oxetan-3-yl}pyridin-2-yl]-6-{[(3S)-3-[(methylsulfanyl)methyl]piperidin-1-yl]methyl}-4-(trifluoromethyl)-3H-isoindol-1-one]
IFN-y 1 nM (Human primary T cells [1]): B (values between 0.31 and 1.00: range “B;”) | IFN-y 10 nM (Human primary T cells [1]): B (values between 0.31 and 1.00: range “B;”) | IFN-y 100 nM (Human primary T cells [1]): B (values between 0.31 and 1.00: range “B;”) | IL-2 1 nM (Human primary T cells [2]): C (values between 0.10 and 0.30: range “C”) | IL-2 10 nM (Human primary T cells [2]): B (values between 0.31 and 0.79: range “B”) | IL-2 100 nM (Human primary T cells [2]): B (values between 0.31 and 0.79: range “B”) | CD69 10 nM (Human primary T cells [3]): B (values between 0.61 and 0.80: range “B;”) | CD69 100 nM (Human primary T cells [3]): A (values between 0.81 and 1.10: range “A”) | pIC50 [4]: 7.70 to 8.30

CCSc1cc(C2(c3nncn3C)CC(C)C2)cc(N2Cc3c(cc(CN4CCC[C@H](C)C4)cc3C(F)(F)F)C2=O)n1 (stereo partly drawn) [Compound 112, 2-[6-(ethylsulfanyl)-4-[(1r,3s)-3-methyl-1-(4-methyl-1,2,4-triazol-3-yl)cyclobutyl]pyridin-2-yl]-6-{[(3S)-3-methylpiperidin-1-yl]methyl}-4-(trifluoromethyl)-3H-isoindol-1-one]
IFN-y 1 nM (Human primary T cells [1]): C (values between 0.10 and 0.30: range “C”) | IFN-y 10 nM (Human primary T cells [1]): B (values between 0.31 and 1.00: range “B;”) | IFN-y 100 nM (Human primary T cells [1]): B (values between 0.31 and 1.00: range “B;”) | IL-2 1 nM (Human primary T cells [2]): C (values between 0.10 and 0.30: range “C”) | IL-2 10 nM (Human primary T cells [2]): C (values between 0.10 and 0.30: range “C”) | IL-2 100 nM (Human primary T cells [2]): B (values between 0.31 and 0.79: range “B”) | CD69 10 nM (Human primary T cells [3]): C (values between 0.30 and 0.60: range “C”) | CD69 100 nM (Human primary T cells [3]): B (values between 0.61 and 0.80: range “B;”) | pIC50 [4]: 7.00 to 7.70
